Where two headings read alike, the source gives them in different places.
Legend:
[1] = molecular target: T1, off-target kinases (Homo sapiens, UniProt Q8IYT8); experiment: SelectScreen Kinase Profiling, single point inhibition and IC50 for off-target kinases; type: biochemical; conditions: ULK2, LanthaScreen Binding
T1 sequence (Q8IYT8 1-1036): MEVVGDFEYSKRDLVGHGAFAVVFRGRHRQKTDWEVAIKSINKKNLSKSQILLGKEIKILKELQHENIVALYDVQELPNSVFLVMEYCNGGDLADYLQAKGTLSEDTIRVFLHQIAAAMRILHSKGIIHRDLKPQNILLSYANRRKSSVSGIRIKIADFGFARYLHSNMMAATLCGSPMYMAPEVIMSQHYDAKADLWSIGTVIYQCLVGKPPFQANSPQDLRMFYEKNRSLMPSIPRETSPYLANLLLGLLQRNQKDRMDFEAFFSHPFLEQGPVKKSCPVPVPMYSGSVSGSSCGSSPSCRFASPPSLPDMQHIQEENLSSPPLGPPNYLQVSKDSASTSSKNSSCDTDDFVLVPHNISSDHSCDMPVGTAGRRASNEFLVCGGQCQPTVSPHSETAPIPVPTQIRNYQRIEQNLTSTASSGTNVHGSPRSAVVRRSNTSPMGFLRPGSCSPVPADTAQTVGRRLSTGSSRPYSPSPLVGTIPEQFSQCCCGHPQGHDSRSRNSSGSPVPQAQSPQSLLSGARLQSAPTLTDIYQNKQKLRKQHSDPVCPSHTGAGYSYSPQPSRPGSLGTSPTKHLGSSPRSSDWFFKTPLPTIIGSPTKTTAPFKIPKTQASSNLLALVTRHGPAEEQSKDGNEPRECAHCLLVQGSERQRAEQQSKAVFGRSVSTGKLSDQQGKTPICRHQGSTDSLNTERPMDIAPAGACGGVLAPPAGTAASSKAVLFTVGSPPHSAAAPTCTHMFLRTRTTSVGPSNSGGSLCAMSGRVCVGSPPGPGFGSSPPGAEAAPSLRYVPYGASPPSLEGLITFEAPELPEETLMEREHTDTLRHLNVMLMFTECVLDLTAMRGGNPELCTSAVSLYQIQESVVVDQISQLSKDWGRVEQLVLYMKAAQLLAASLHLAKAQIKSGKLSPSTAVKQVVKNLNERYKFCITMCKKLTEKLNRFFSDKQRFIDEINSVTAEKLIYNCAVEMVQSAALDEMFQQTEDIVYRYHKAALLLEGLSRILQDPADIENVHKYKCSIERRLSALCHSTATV

[2] = molecular target: T2, off-target kinases (Homo sapiens, UniProt Q8TD08); experiment: as above; type: biochemical; conditions: MAPK15 (ERK7), LanthaScreen Binding
T2 sequence (Q8TD08 1-544): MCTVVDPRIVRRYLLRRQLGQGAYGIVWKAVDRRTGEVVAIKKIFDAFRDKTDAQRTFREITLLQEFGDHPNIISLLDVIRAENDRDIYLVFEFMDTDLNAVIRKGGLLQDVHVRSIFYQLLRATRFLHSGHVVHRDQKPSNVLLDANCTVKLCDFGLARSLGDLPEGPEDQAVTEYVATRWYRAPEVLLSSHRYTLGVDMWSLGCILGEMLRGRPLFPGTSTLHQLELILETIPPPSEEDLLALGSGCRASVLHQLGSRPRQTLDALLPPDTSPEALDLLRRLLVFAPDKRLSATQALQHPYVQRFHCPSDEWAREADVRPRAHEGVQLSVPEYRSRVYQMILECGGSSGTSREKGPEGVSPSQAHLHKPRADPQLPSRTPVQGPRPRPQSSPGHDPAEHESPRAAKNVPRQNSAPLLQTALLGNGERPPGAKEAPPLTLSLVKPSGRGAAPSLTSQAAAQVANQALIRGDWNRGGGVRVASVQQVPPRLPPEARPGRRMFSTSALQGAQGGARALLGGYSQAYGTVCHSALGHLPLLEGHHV

SMILES: N#Cc1cc(-c2ncnc(Nc3ccc(N4CCN(C5COC5)CC4)cc3)n2)ccc1OC1CCOCC1 [Compound 1, 5-(4-((4-(4-(oxetan-3-yl)piperazin-1-yl)phenyl)amino)-1,3,5-triazin-2-yl)-2-((tetrahydro-2H-pyran-4-yl)oxy)benzonitrile]
- inhibition ([1]; read-out: % Inhibition 1): 86%
- inhibition ([1]; read-out: % Inhibition 2): 90%
- inhibition ([1]; read-out: % Inhibition Avg): 88%
- inhibition ([2]; read-out: % Inhibition 1): 100%
- inhibition ([2]; read-out: % Inhibition 2): 100%
- inhibition ([2]; read-out: % Inhibition Avg): 100%
